Values after ≈ are worked out from the molar mass of the structure shown. Where two headings read alike, the source gives them in different places.
Tests used:
Plasmodium falciparum = settings: cited from earlier work; for antimalarial activity: among 20 nature identical essential oil constituents
[1] = test system: Trichomonas vaginalis cells, TVH1 strain; format: cell-based; settings: for inhibition at 0.2 µg/mL / inhibition at 0.4 µg/mL / inhibition at 0.8 µg/mL / inhibition at 1.6 µg/mL / inhibition at 3.1 µg/mL / inhibition at 6.2 µg/mL / inhibition at 3.9 µg/mL / inhibition at 7.8 µg/mL / inhibition at 15.6 µg/mL / inhibition at 31.2 µg/mL / inhibition at 62.5 µg/mL / inhibition at 250 µg/mL: read-out: Growth inhibition percent (Mean ± SD)
[2] = test system: Trichomonas vaginalis cells, TVH1 strain; assay: Annexin V/PI apoptosis assay by flow cytometry; format: cell-based; settings: sub-MLC concentration, 24 hours
MTT cytotoxicity assay = format: cell-based; settings: African green monkey, Vero cells
Vero cells = assay: MTT cytotoxicity assay; format: cell-based; settings: for CC50: Vero cells
[3] = test system: promastigotes of L. amazonensis; settings: cited from earlier work
[4] = test system: intramacrophagic amastigotes of L. amazonensis; settings: cited from earlier work

C=CC(C)(O)CCC=C(C)CCC=C(C)C (mixture of isomers) [nerolidol]
antimalarial activity (Plasmodium falciparum): most potent antimalarial activity

Cc1ncc([N+](=O)[O-])n1CCO [Metronidazole, reference compound]
MLC (minimum lethal concentration) ([1]; 12 hours incubation): 25 µg/mL (≈ 146 µM) | MLC (minimum lethal concentration) ([1]; 48 hours incubation): 6.25 µg/mL (≈ 36.5 µM) | drug susceptibility of the isolate ([1]; TVH1 isolate): sensitive | inhibition at 0.2 µg/mL ([1]; Trichomonas vaginalis, 12 h): 4.9 ± 3.9% | inhibition at 0.4 µg/mL ([1]; Trichomonas vaginalis, 12 h): 19.3 ± 5.5% | inhibition at 0.8 µg/mL ([1]; Trichomonas vaginalis, 12 h): 38.9 ± 7.1% | inhibition at 1.6 µg/mL ([1]; Trichomonas vaginalis, 12 h): 59.2 ± 8.6% | inhibition at 3.1 µg/mL ([1]; Trichomonas vaginalis, 12 h): 64.6 ± 5.3% | inhibition at 6.2 µg/mL ([1]; Trichomonas vaginalis, 12 h): 77.5 ± 6.3% | inhibition at 0.2 µg/mL ([1]; Trichomonas vaginalis, 24 h): 10.3 ± 6.7% | inhibition at 0.4 µg/mL ([1]; Trichomonas vaginalis, 24 h): 32.8 ± 2.6% | inhibition at 0.8 µg/mL ([1]; Trichomonas vaginalis, 24 h): 55 ± 4.6% | inhibition at 1.6 µg/mL ([1]; Trichomonas vaginalis, 24 h): 72.6 ± 2.3% | inhibition at 3.1 µg/mL ([1]; Trichomonas vaginalis, 24 h): 84.6 ± 2.7% | inhibition at 6.2 µg/mL ([1]; Trichomonas vaginalis, 24 h): 93.4 ± 0.6% | inhibition at 0.2 µg/mL ([1]; Trichomonas vaginalis, 48 h): 25.9 ± 4.8% | inhibition at 0.4 µg/mL ([1]; Trichomonas vaginalis, 48 h): 44 ± 2.2% | inhibition at 0.8 µg/mL ([1]; Trichomonas vaginalis, 48 h): 73.4 ± 2.5% | inhibition at 1.6 µg/mL ([1]; Trichomonas vaginalis, 48 h): 91.5 ± 2.3% | inhibition at 3.1 µg/mL ([1]; Trichomonas vaginalis, 48 h): 98.2 ± 0.4% | inhibition at 6.2 µg/mL ([1]; Trichomonas vaginalis, 48 h): 100%

C=CC(C)(CCC=C(C)C)OC(C)=O (stereo not shown) [linalyl acetate]
antimalarial activity (Plasmodium falciparum): most potent antimalarial activity

CC(C)=C1CC[C@@H](C)CC1=O [pulegone]
antimalarial activity (Plasmodium falciparum): most potent antimalarial activity

CC1=CCC2CC1C2(C)C (stereo not drawn) [α-Pinene]
MLC (minimum lethal concentration) ([1]; 12 hours incubation): 250 µg/mL (≈ 1840 µM) | MLC (minimum lethal concentration) ([1]; 24 hours incubation): 125 µg/mL (≈ 918 µM) | MLC (minimum lethal concentration) ([1]; 48 hours incubation): 125 µg/mL (≈ 918 µM) | IC50 ([1]; Trichomonas vaginalis, 12 h): 38.9 µg/mL (≈ 286 µM) | inhibition at 3.9 µg/mL ([1]; Trichomonas vaginalis, 12 h): 21.4 ± 7.6% | inhibition at 7.8 µg/mL ([1]; Trichomonas vaginalis, 12 h): 26.3 ± 5.5% | inhibition at 15.6 µg/mL ([1]; Trichomonas vaginalis, 12 h): 40.2 ± 6.3% | inhibition at 31.2 µg/mL ([1]; Trichomonas vaginalis, 12 h): 48.5 ± 4.1% | inhibition at 62.5 µg/mL ([1]; Trichomonas vaginalis, 12 h): 54.5 ± 3.3% | inhibition at 250 µg/mL ([1]; Trichomonas vaginalis, 12 h): 100% | IC50 ([1]; Trichomonas vaginalis, 24 h): 30.2 µg/mL (≈ 222 µM) | inhibition at 3.9 µg/mL ([1]; Trichomonas vaginalis, 24 h): 15.5 ± 5.8% | inhibition at 7.8 µg/mL ([1]; Trichomonas vaginalis, 24 h): 29.2 ± 6.3% | inhibition at 15.6 µg/mL ([1]; Trichomonas vaginalis, 24 h): 69.3 ± 7.7% | inhibition at 31.2 µg/mL ([1]; Trichomonas vaginalis, 24 h): 76.5 ± 8.8% | inhibition at 62.5 µg/mL ([1]; Trichomonas vaginalis, 24 h): 80.9 ± 6.4% | inhibition at 250 µg/mL ([1]; Trichomonas vaginalis, 24 h): 100% | IC50 ([1]; Trichomonas vaginalis, 48 h): 22.9 µg/mL (≈ 168 µM) | inhibition at 3.9 µg/mL ([1]; Trichomonas vaginalis, 48 h): 10.2 ± 6.5% | inhibition at 7.8 µg/mL ([1]; Trichomonas vaginalis, 48 h): 45.3 ± 4.7% | inhibition at 15.6 µg/mL ([1]; Trichomonas vaginalis, 48 h): 74.3 ± 5.2% | inhibition at 31.2 µg/mL ([1]; Trichomonas vaginalis, 48 h): 84.1 ± 4.3% | inhibition at 62.5 µg/mL ([1]; Trichomonas vaginalis, 48 h): 96.7 ± 6.2% | inhibition at 250 µg/mL ([1]; Trichomonas vaginalis, 48 h): 100% | IC50 ([1]; Trichomonas vaginalis, read-out: IC50 (range over incubation times)): 22.9 to 38.9 µg/mL (≈ 168 to 286 µM) | IC50 ([1]; Trichomonas vaginalis, read-out: mean IC50): 30.7 µg/mL (≈ 225 µM) | necrotic effect [2]: 50.5% | CC50 at 12 h (MTT cytotoxicity assay): 226 µg/mL (≈ 1660 µM) | CC50 at 24 h (MTT cytotoxicity assay): 209 µg/mL (≈ 1530 µM) | CC50 at 48 h (MTT cytotoxicity assay): 116 µg/mL (≈ 851 µM) | SI (selectivity index = CC50/IC50) (Vero cells; Vero CC50 / Trichomonas IC50, 12 hours): 5.8 | SI (selectivity index = CC50/IC50) (Vero cells; Vero CC50 / Trichomonas IC50, 24 hours): 6.9 | SI (selectivity index = CC50/IC50) (Vero cells; Vero CC50 / Trichomonas IC50, 48 hours): 5 | average selectivity index (SI) (Vero cells; average of 12, 24 and 48 hours): 5.9 | antimalarial activity (Plasmodium falciparum): most potent antimalarial activity | IC50 (Plasmodium falciparum; read-out: IC 50 (growth inhibition)): 1200 ± 200 nM | IC50 [3]: 19.7 µg/mL (≈ 145 µM) | IC50 (cytotoxic effect) [4]: 15.6 µg/mL (≈ 115 µM)

Tannic acid
Growth inhibition percent (Mean ± SD) ([1]; 62.5 μg/ml, 12 hours): 1.4 ± 5.2% | Growth inhibition percent (Mean ± SD) ([1]; 62.5 μg/ml, 24 hours): 4.3 ± 4.9% | Growth inhibition percent (Mean ± SD) ([1]; 62.5 μg/ml, 48 hours): 21.1 ± 6.2% | Growth inhibition percent (Mean ± SD) ([1]; 250 μg/ml, 12 hours): 13.4 ± 8.3% | Growth inhibition percent (Mean ± SD) ([1]; 250 μg/ml, 24 hours): 26.4 ± 3.9% | Growth inhibition percent (Mean ± SD) ([1]; 250 μg/ml, 48 hours): 71.5 ± 6.8% | Growth inhibition percent (Mean ± SD) ([1]; 500 μg/ml, 12 hours): 16.9 ± 5.2% | Growth inhibition percent (Mean ± SD) ([1]; 500 μg/ml, 24 hours): 33.8 ± 4.8% | Growth inhibition percent (Mean ± SD) ([1]; 500 μg/ml, 48 hours): 74.9 ± 5.1% | Growth inhibition percent (Mean ± SD) ([1]; 1000 μg/ml, 12 hours): 19.8 ± 6.7% | Growth inhibition percent (Mean ± SD) ([1]; 1000 μg/ml, 24 hours): 59.9 ± 6.2% | Growth inhibition percent (Mean ± SD) ([1]; 1000 μg/ml, 48 hours): 87.6 ± 4.4% | Growth inhibition percent (Mean ± SD) ([1]; 2000 μg/ml, 12 hours): 78.8 ± 5.1% | Growth inhibition percent (Mean ± SD) ([1]; 2000 μg/ml, 24 hours): 80.4 ± 3.8% | Growth inhibition percent (Mean ± SD) ([1]; 2000 μg/ml, 48 hours): 100 ± 0.0% | Growth inhibition percent (Mean ± SD) ([1]; 4000 μg/ml, 12 hours): 100 ± 0.0% | Growth inhibition percent (Mean ± SD) ([1]; 4000 μg/ml, 24 hours): 100 ± 0.0% | Growth inhibition percent (Mean ± SD) ([1]; 4000 μg/ml, 48 hours): 100 ± 0.0% | IC50 ([1]; 12 hours incubation): 1398 µg/mL | MLC (minimum lethal concentration) ([1]; 12 hours incubation): 4000 µg/mL | IC50 ([1]; 24 hours incubation): 689 µg/mL | MLC (minimum lethal concentration) ([1]; 24 hours incubation): 4000 µg/mL | IC50 ([1]; 48 hours incubation): 140 µg/mL | MLC (minimum lethal concentration) ([1]; 48 hours incubation): 2000 µg/mL | mean IC50 ([1]; average of 12, 24 and 48 hours): 742.3 µg/mL | necrotic effect [2]: 31.9% | CC50 (Vero cells; 12 hours): 747 µg/mL | CC50 (Vero cells; 24 hours): 677 µg/mL | CC50 (Vero cells; 48 hours): 473 µg/mL

— article PMC11033537 (Iranian Journal of Parasitology, 2024)
